# Residues, ends and D or L forms follow the SMILES beside them.
# Legend:
# [1] = system: Pseudomonas aeruginosa ATCC 27853; assay type: cell-based
# Method: (§1) The minimum bactericidal concentration (MBC) was determined as previously described with minor modifications. Briefly, bacteria were cultured in the mid-log phase and diluted to 5 × 10^5 colony-forming unit (CFU)/mL in 10 mM sodium phosphate buffer (pH 7.4) with a 1% volume of TS broth. They were incubated for 1 h with various peptides which were two-fold diluted serially from 64 μg/mL to 0 μg/mL concentrations in a 96-well plate. The samples were inoculated TS agar plate and incubated overnight at 37 °C. The value of MBC was determined at the lowest concentrations at which no colonies were identified.
# (§2) We used the CFU counting method to measure antibacterial activity, with all bacteria cultured to the mid-log phase in an appropriate broth medium. Bacterial CFUs were counted after overnight culture at 37 °C on TS or LB agar plates. The MBC value and antibacterial activity in blood components were determined as previously described. Mouse and human whole blood were collected and diluted with PBS (pH 7.4) to measure the ex vivo antibacterial activity of AMPR-22. For that test, AMPR-22 (10 μg) was added to each whole blood solution and incubated at 37 °C with shaking at 200 rpm. At each time point, it was incubated with bacteria (1 × 10^3 CFU) for 30 min. Each sample was inoculated on an LB agar plate, and CFU counting was performed. To measure the in vivo activity of AMPR-22, 1 × 10^8 CFU of bacteria were injected into BALB/c mice, and an hour later, 10 mg/kg of the test peptides were injected. Blood samples were collected by tail cut, serially diluted with PBS (pH 7.4), and inoculated on LB-agar plates, followed by CFU counting. To estimate the functional half-life of AMPR-22, 40 mg/kg of each tested peptide were injected into mice. Whole blood sampling was performed by cardiac puncture, and the plasma was isolated by centrifugation (2000× g, 15 min). The isolated plasma was incubated with bacteria (1 × 10^3 CFU) for an hour, and then the CFU counting method was performed.
# [2] = system: Staphylococcus aureus ATCC 29213; assay type: cell-based
# Method: as §1, §2
# [3] = system: Streptococcus pneumoniae NCCP 14585; assay type: cell-based; settings: NCCP 14585, 1 h
# Method: as §1, §2
# [4] = system: Methicillin-resistant S. aureus (MRSA) ATCC 33591; assay type: cell-based, Staphylococcus aureus; settings: Table 2; ATCC 33591; modified MBC
# Method: as §1, §2
# [5] = system: Vancomycin-resistant S. aureus NCCP 15872; assay type: cell-based, Staphylococcus aureus; settings: Vancomycin-resistant NCCP 15872, 1 h
# Method: as §1, §2
# [6] = system: Carbapenem-resistant P. aeruginosa (CRPA), clinical isolate; assay type: cell-based, Pseudomonas aeruginosa; settings: 1 h
# Source text: Acinetobacter baumannii (ATCC 19606), B. subtilis (ATCC 6633), E. aerogenes (ATCC 13048), E. coli (ATCC 25922), E. faecalis (ATCC 19433), E. faecium (ATCC 19434), K. pneumoniae (ATCC 13883), P. aeruginosa (ATCC 27853), S. aureus (ATCC 29213), S. sindenensis (ATCC 23963), and MRSA (ATCC 33591) were purchased from the American Type Culture Collection (ATCC; Gaithersburg, MD, USA). Streptococcus pneumoniae (NCCP 14585), vancomycin-resistant E. faecium (NCCP 11522), and vancomycin-resistant S. aureus (NCCP 15872) were purchased from the National Culture Collection for Pathogens (NCCP; Cheongju, Korea). The isolation and use of carbapenem-resistant bacterial strains from a patient were approved (2015AN0129) by the Institutional Review Board (IRB) of Korea University Hospital. CRPA, CRKP, and CRAB were clinically isolated in Korea University Hospital (Seoul, Korea). CRPA was confirmed to be resistant to piperacillin, piperacillin-tazobactam, ceftazidime, imipenem, meropenem, gentamicin, amikacin, and ciprofloxacin. CRAB was confirmed to be resistant to piperacillin, piperacillin-tazobactam, cefepime, ceftazidime, imipenem, meropenem, gentamicin, amikacin, and ciprofloxacin. CRKP was confirmed to be resistant to piperacillin-tazobactam, cefepime, ceftazidime, imipenem, gentamicin, and ciprofloxacin. All strains were stored at –80 °C in 50% glycerol and 50% Luria-Bertani (LB) or tryptic soy (TS) broth, grown on LB or TS plates, and aerated at 37 °C.
# as §1, §2
# [7] = system: Acinetobacter baumannii ATCC 19606; assay: Modified MBC determination; assay type: cell-based; settings: Table 2
# Method: as §1, §2
# [8] = system: Bacillus subtilis ATCC 6633; assay: Modified MBC determination; assay type: cell-based; settings: Table 2
# Method: as §1, §2
# [9] = system: Enterobacter aerogenes ATCC 13048; assay: Modified MBC determination; assay type: cell-based; settings: Table 2
# Method: as §1, §2
# [10] = system: Enterococcus faecalis ATCC 19433; assay: Modified MBC determination; assay type: cell-based; settings: Table 2
# Method: as §1, §2
# [11] = system: Enterococcus faecium ATCC 19434; assay: Modified MBC determination; assay type: cell-based; settings: Table 2
# Method: as §1, §2
# [12] = system: Escherichia coli ATCC 25922; assay: Modified MBC determination; assay type: cell-based; settings: Table 2
# Method: as §1, §2
# [13] = system: Klebsiella pneumoniae ATCC 13883; assay: Modified MBC determination; assay type: cell-based; settings: Table 2
# Method: as §1, §2
# [14] = system: Streptomyces sindenensis ATCC 23963; assay: Modified MBC determination; assay type: cell-based; settings: Table 2
# Method: as §1, §2
# [15] = system: Carbapenem-resistant A. baumannii, clinical isolate; assay type: cell-based, Acinetobacter baumannii; settings: 1 h
# Source text: (§3) Acinetobacter baumannii (ATCC 19606), B. subtilis (ATCC 6633), E. aerogenes (ATCC 13048), E. coli (ATCC 25922), E. faecalis (ATCC 19433), E. faecium (ATCC 19434), K. pneumoniae (ATCC 13883), P. aeruginosa (ATCC 27853), S. aureus (ATCC 29213), S. sindenensis (ATCC 23963), and MRSA (ATCC 33591) were purchased from the American Type Culture Collection (ATCC; Gaithersburg, MD, USA). Streptococcus pneumoniae (NCCP 14585), vancomycin-resistant E. faecium (NCCP 11522), and vancomycin-resistant S. aureus (NCCP 15872) were purchased from the National Culture Collection for Pathogens (NCCP; Cheongju, Korea). The isolation and use of carbapenem-resistant bacterial strains from a patient were approved (2015AN0129) by the Institutional Review Board (IRB) of Korea University Hospital. […]
# (§4) The minimum bactericidal concentration (MBC) was determined as previously described with minor modifications. […] The value of MBC was determined at the lowest concentrations at which no colonies were identified.
# (§5) We used the CFU counting method to measure antibacterial activity, with all bacteria cultured to the mid-log phase in an appropriate broth medium. Bacterial CFUs were counted after overnight culture at 37 °C on TS or LB agar plates. The MBC value and antibacterial activity in blood components were determined as previously described. […]
# [16] = system: Carbapenem-resistant K. pneumoniae, clinical isolate; assay type: cell-based, Klebsiella pneumoniae; settings: 1 h
# Source text: as §3, §4, §5
# [17] = system: Vancomycin-resistant E. faecium NCCP 11522; assay type: cell-based, Enterococcus faecium; settings: Vancomycin-resistant NCCP 11522, 1 h
# Method: as §1
# We used the CFU counting method to measure antibacterial activity, with all bacteria cultured to the mid-log phase in an appropriate broth medium. Bacterial CFUs were counted after overnight culture at 37 °C on TS or LB agar plates. The MBC value and antibacterial activity in blood components were determined as previously described. Mouse and human whole blood were collected and diluted with PBS (pH 7.4) to measure the ex vivo antibacterial activity of AMPR-22. For that test, AMPR-22 (10 μg) was added to each whole blood solution and incubated at 37 °C with shaking at 200 rpm. At each time point, it was incubated with bacteria (1 × 10^3 CFU) for 30 min. Each sample was inoculated on an LB agar plate, and CFU counting was performed. […]
# [18] = system: human erythrocytes; assay: Hemolysis assay; assay type: cell-based; settings: 2% erythrocytes in PBS, 1 h 37 °C, absorbance 550 nm; up to / at 256 µg/mL
# Method: For the hemolytic assay, mouse and human whole blood was diluted with PBS (pH 7.4) and centrifuged for 10 min at 500× g. After removing the supernatant and rinsing the pellet three times with PBS, we resuspended the erythrocytes in PBS at 2% volume. The blood solution was added to the solution of peptides with two-fold serial dilution on a 96-well plate. After incubation for an hour at 37 °C, the plate was centrifuged at 2500× g for 10 min, and the absorbance of the supernatant was measured at 550 nm. The PBS-treated sample was the negative control, and the 0.1% Triton X-100–treated sample was the positive control. To measure white blood cell toxicity, mouse and human PBMCs were freshly isolated as previously described, and 70% ethanol (positive control) or AMPR-22 was administered using two-fold diluted concentrations (0 to 256 μg/mL) for 30 min. To measure cell death, a LIVE/DEAD® fixable green dead cell stain kit (Thermo Fisher Scientific, Waltham, MS, USA) was used following the manufacturer′s instructions, and flow cytometry was performed using a FACS Canto II (BD Biosciences, CA, USA). The toxicity of AMPR-22 was compared with negative (PBS-treated) and positive controls, and the data were analyzed using FlowJo software (Tree Star, OR, USA).
# [19] = system: P. aeruginosa; assay: Serial passage assay (acquisition of drug resistance); assay type: cell-based, Pseudomonas aeruginosa; settings: sub-MBC treatment
# Method: For the PI uptake assay, bacteria were cultured in the mid-log phase and diluted to 5 × 10^5 CFU/mL in PBS (pH 7.4). The peptides were treated with 40 μg/mL for 10 min, and then 10 μM PI was added and incubated for 20 min. The PI fluorescence was measured with a flow cytometric assay using a FACS Canto II (BD Biosciences, CA, USA), and the data were analyzed using FlowJo software (Tree Star, Ashland, OR, USA). NPN uptake and a membrane depolarization assay were performed as previously described, with some changes. Briefly, 1 × 10^4 CFU/mL of bacteria were place on a 96-well plate, and then 10 μM NPN or 4 μM DiSC3(5) was added, and AMPR-22 was administered. The fluorescence signal was measured for 10 min using a SpectraMax Plus 384 microplate reader (Molecular Devices, San Jose, CA, USA). For the NPN uptake assay, AMPR-22 was administered 3 min after the start of the fluorescence measurements. The ATP leakage assay was performed using a BacTiter-glo™ kit (Promega, Madison, WI, USA) and the manufacturer’s instructions with minor modifications. […] The luminescence signal was measured using a SpectraMax Plus 384 microplate reader (Molecular Devices, San Jose, CA, USA). […] Sub-MBC concentrations of peptide were administered to 1 mL of cultured cells, and then the MBC values were determined for every passage. […]
smiles,measurement,setting,value
CC[C@H](C)[C@H](NC(=O)CNC(=O)[C@H](CCSC)NC(=O)CNC(=O)[C@@H](NC(=O)[C@H](C)NC(=O)[C@H](CCSC)NC(=O)[C@H](Cc1ccccc1)NC(=O)[C@@H](NC(=O)CNC(=O)[C@H](Cc1ccccc1)NC(=O)[C@H](CCCCN)NC(=O)CNC(=O)CNC(=O)[C@H](CCCCN)NC(=O)[C@H](CCCCN)NC(=O)[C@H](CCSC)NC(=O)[C@H](CCSC)NC(=O)[C@H](CCCCN)NC(=O)[C@@H](N)CCCCN)[C@@H](C)O)[C@@H](C)CC)C(=O)N[C@@H](CCCNC(=N)N)C(=O)O [AMPR-21] (H-KKMMKKGGKFGTFMAIGMGIR-OH),"MBC Value, P. aeruginosa","[1]; ATCC 27853, 1 h",4 µg/mL
same,"MBC Value, Pseudomonas aeruginosa","[1]; Table 2, ATCC 27853, modified MBC",4 µg/mL
same,"MBC Value, S. aureus","[2]; ATCC 29213, 1 h, pH 7.4",8 µg/mL
same,"MBC Value, Staphylococcus aureus","[2]; Table 2, ATCC 29213, modified MBC",4 µg/mL
same,"MBC Value, Streptococcus pneumoniae",[3],8 µg/mL
same,"MBC Value, Methicillin-resistant S. aureus",[4],8 µg/mL
same,"MBC Value, Vancomycin-resistant S. aureus",[5],8 µg/mL
same,"MBC Value, CRPA",[6],4 µg/mL
same,"MBC Value, Carbapenem-resistant P. aeruginosa",[6],4 µg/mL
same,"MBC Value, Acinetobacter baumannii",[7],4 µg/mL
same,"MBC Value, Bacillus subtilis",[8],2 µg/mL
same,"MBC Value, Enterobacter aerogenes",[9],4 µg/mL
same,"MBC Value, Enterococcus faecalis",[10],8 µg/mL
same,"MBC Value, Enterococcus faecium",[11],8 µg/mL
same,"MBC Value, Escherichia coli",[12],4 µg/mL
same,"MBC Value, Klebsiella pneumoniae",[13],4 µg/mL
same,"MBC Value, Streptomyces sindenensis",[14],4 µg/mL
same,"MBC Value, Carbapenem-resistant A. baumannii",[15],2 µg/mL
same,"MBC Value, Carbapenem-resistant K. pneumoniae",[16],8 µg/mL
same,"MBC Value, Vancomycin-resistant E. faecium",[17],8 µg/mL
same,Hemolytic activity against human erythrocytes,[18],negligible hemolytic activity
CNC(C)C1CCC(N)C(OC2C(N)CC(N)C(OC3OCC(C)(O)C(NC)C3O)C2O)O1 (centres unmarked) [gentamicin],Passages after which resistance developed,[19],nine
same,Increase of the modified MBC value after 30 passages,[19]; 30 passages,64 fold

# From paper PMC8348110, “A Novel Peptide Derived from the Transmembrane Domain of Romo1 Is a Promising Candidate for Sepsis Treatment and Multidrug-Resistant Bacteria” (International Journal of Molecular Sciences, 2021)
